According to patent US8946439B2, “Amide compounds, compositions and uses thereof” (Evotec AG, priority 2008, dated 2015):
Read-outs that look alike come from different tables or passages of the source.

Tests used:
hP2X2/3H = target: T1, hP2X2/3H (Homo sapiens, UniProt P56373+Q9UBL9); assay: Calcium uptake assay (P2X antagonist assay), P2X2/3 heteromer; assay type: cell-based; conditions: hP2X2/3H
T1 construct: expressed in transfected cells; host or cells: e.g. HEK293 or 1321N1
T1 sequence (Q9UBL9 1-471): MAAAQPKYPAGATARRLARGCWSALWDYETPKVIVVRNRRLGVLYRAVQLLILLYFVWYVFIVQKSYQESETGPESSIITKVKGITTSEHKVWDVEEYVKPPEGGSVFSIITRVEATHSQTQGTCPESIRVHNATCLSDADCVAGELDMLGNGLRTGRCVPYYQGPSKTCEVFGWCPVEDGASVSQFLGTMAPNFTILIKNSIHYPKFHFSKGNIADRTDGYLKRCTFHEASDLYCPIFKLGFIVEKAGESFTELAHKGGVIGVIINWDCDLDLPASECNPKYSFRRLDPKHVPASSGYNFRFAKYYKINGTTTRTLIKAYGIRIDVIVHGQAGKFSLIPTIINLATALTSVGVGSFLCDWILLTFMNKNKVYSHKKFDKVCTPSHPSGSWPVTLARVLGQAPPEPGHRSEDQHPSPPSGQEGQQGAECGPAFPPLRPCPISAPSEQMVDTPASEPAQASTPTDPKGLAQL
T1 sequence (P56373 1-397): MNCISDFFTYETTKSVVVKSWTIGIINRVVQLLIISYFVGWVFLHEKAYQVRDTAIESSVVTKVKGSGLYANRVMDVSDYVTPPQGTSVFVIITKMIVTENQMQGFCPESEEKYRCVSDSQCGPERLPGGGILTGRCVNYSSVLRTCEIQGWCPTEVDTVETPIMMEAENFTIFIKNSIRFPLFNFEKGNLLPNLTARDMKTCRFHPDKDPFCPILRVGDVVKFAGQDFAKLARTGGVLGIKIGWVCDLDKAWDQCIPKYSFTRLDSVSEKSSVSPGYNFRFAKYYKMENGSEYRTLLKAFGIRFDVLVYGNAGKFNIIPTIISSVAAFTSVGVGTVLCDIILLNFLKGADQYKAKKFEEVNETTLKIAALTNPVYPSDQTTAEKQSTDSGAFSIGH
Method in brief: (§1)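 Stably or transiently transfected HEK293 or 1321N1 cells; the heteromer is made by adding P2X3 to a P2X2-stable line, with heteromer function isolated pharmacologically. The peak-minus-baseline FLIPR calcium signal gives % inhibition and a 4-parameter-logistic IC50.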

hP2X3 = target: T2, hP2X3 (Homo sapiens, UniProt P56373); assay: Calcium uptake assay (P2X antagonist assay), P2X3 homomer; assay type: cell-based; conditions: hP2X3
T2 construct: expressed in transfected cells; host or cells: e.g. HEK293 or 1321N1
T2 sequence (P56373 1-397): T1 sequence (P56373 1-397)
Method in brief: as §1

[1] = Ca influx (calcium uptake assay), read-out: IC50 hP2X2/3H
[2] = Ca influx (calcium uptake assay), read-out: IC50 hP2X3
[3] = calcium uptake assay, read-out: IC50 hP2X2/3H (nM), Ca Influx
[4] = calcium uptake assay, read-out: IC50 hP2X3 (nM), Ca Influx

SMILES | IC50 (hP2X2/3H; [1]) | IC50 (hP2X3; [2]) | IC50 (hP2X2/3H; [3]) | IC50 (hP2X3; [4])
COCCOc1cc(C(=O)N[C@H](C)c2ccc(C)nc2)cc(-c2ccc(C)cc2C#N)c1 [Compound 252] | < 100 nM | < 100 nM | – | –
Cc1ccc(-c2cc(C(=O)NCc3cnc(C)nc3)cc(C(=O)N3CCN(C)CC3)c2)cc1 [Compound 25] | – | – | 100 to 500 nM | < 100 nM
Cc1ccc(-c2cc(C(=O)NC(CCO)c3ccc(C(F)(F)F)nc3)cc(C(=O)N3CCCC3)c2)cc1 (stereo not shown) [Compound 83, N-(3-Hydroxy-1-(6-(trifluoromethyl)pyridin-3-yl)propyl)-4′-methyl-5-(pyrrolidine-1-carbonyl)biphenyl-3-carboxamide] | – | – | 100 to 500 nM | 100 to 500 nM
Cc1ccc(-c2cc(C(=O)N[C@H](C)c3ccc(C)nc3)cc(C(O)c3nccs3)c2)cc1 (stereo partly drawn) [Compound 280, 5-(Hydroxy(thiazol-2-yl)methyl)-4′-methyl-N—((R)-1-(6-methylpyridin-3-yl)ethyl)biphenyl-3-carboxamide] | < 100 nM | < 100 nM | – | –
Cc1ccc(-c2cc(C(=O)NCc3cnc(C)nc3)cc(C(=O)N3CCCC3)c2)nc1 [Compound 28, 3-(5-Methylpyridin-2-yl)-N-((2-methylpyrimidin-5-yl)methyl)-5-(pyrrolidine-1-carbonyl)benzamide] | – | – | 100 to 500 nM | < 100 nM
Cc1ccc(-c2cc(Oc3nccs3)cc(C(=O)N[C@H](C)c3ccc(C)nc3)c2)nc1 [Compound 264, (R)-3-(5-Methylpyridin-2-yl)-N-(1-(6-methylpyridin-3-yl)ethyl)-5-(thiazol-2-yloxy)benzamide] | < 100 nM | < 100 nM | – | –
Cc1ccc(CNC(=O)c2cc(-c3ccc(Cl)cc3)cc(S(C)(=O)=O)c2)cn1 [Compound 138] | – | – | 100 to 500 nM | 100 to 500 nM
Cc1ccc(-c2cc(C(=O)N[C@H](C)c3ccc(C)nc3)cc(C(O)c3nccs3)c2)nc1 (stereo partly shown) [Compound 291] | < 100 nM | < 100 nM | – | –
Cc1ccc(-c2cc(C(=O)NCc3cnc(C)nc3)cc(C(=O)N(C)CC(C)C)c2)cc1 [Compound 12, N3-Isobutyl-N3,4′-dimethyl-N5-((2-methylpyrimidin-5-yl)methyl)biphenyl-3,5-dicarboxamide] | – | – | < 100 nM | < 100 nM
Cc1ccc(-c2cc(C(=O)N[C@H](C)c3cnc(C)nc3)cc(S(=O)(=O)C(C)C)c2)cc1 [Compound 198] | < 100 nM | < 100 nM | – | –
Cc1ccc(-c2cc(OC(C)CO)cc(C(=O)N[C@H](C)c3ccc(C)nc3)c2)cc1 (stereo partly shown) [Compound 346] | < 100 nM | < 100 nM | – | –
CCCS(=O)(=O)c1cc(C(=O)NCc2cnc(C)nc2)cc(-c2ccc(C)cc2)c1 [Compound 43] | – | – | < 100 nM | < 100 nM
Cc1ccc(-c2cc(C(=O)NCc3ccc(C)nc3)cc(C(=O)N3CC[C@@H](N(C)C)C3)c2)cc1 [Compound 143] | – | – | 501 to 1000 nM | 100 to 500 nM
Cc1ccc(-c2cc(OC3COCC3O)cc(C(=O)N[C@H](C)c3cnc(C)nc3)c2)nc1 (stereo partly shown) [Compound 364] | 100 to 500 nM | < 100 nM | – | –
Cc1ccc(-c2cc(C(=O)NCc3cnc(C)nc3)cc(C(=O)N3CC3C)c2)cc1 (stereo not shown) [Compound 31, 4′-Methyl-5-(2-methylaziridine-1-carbonyl)-N-((2-methylpyrimidin-5-yl)methyl)biphenyl-3-carboxamide] | – | – | 501 to 1000 nM | < 100 nM
Cc1ccc(-c2cc(C(=O)NCc3ccc(C)nc3)cc(C(=O)N3CC[C@H](N(C)C)C3)c2)cc1 [Compound 142] | – | – | 100 to 500 nM | < 100 nM
Cc1ccc([C@@H](C)NC(=O)c2cc(C(=O)N3CCCC3)cc(-c3ccc(Br)cc3)c2)cn1 [Compound 217] | < 100 nM | < 100 nM | – | –
Cc1ccc(-c2cc(Oc3ncccn3)cc(C(=O)N[C@H](C)c3ccc(C)nc3)c2)nc1 [Compound 272] | 100 to 500 nM | < 100 nM | – | –
Cc1ccc(-c2cc(C(=O)N[C@H](CO)c3ccc(C(F)F)nc3)cc(S(C)(=O)=O)c2)cc1 [Compound 207] | < 100 nM | < 100 nM | – | –
Cc1ccc(-c2cc(C(=O)N[C@H](C)c3ccc(C)nc3)cc(C(C)O)c2)cc1 (stereo partly shown) [Compound 321] | < 100 nM | < 100 nM | – | –
Cc1ccc(-c2cc(OC3COCC3O)cc(C(=O)N[C@H](C)c3cnc(C)nc3)c2)c(C#N)c1 (stereo partly shown) [Compound 363] | < 100 nM | < 100 nM | – | –
Cc1ccc(-c2cc(C(=O)NC(c3ccc(C)nc3)C(F)(F)F)cc(C(=O)N3CCCC3)c2)cc1 (stereo not shown) [Compound 214] | > 1000 nM | > 1000 nM | – | –
Cc1ccc(-c2cc(C(=O)N[C@@H](C)CO)cc(C(=O)N(C)CC(C)C)c2)cc1 [Compound 1, (S)—N-(1-Hydroxypropan-2-yl)-N-isobutyl-N,4′-dimethylbiphenyl-3,5-dicarboxamide] | – | – | 100 to 500 nM | < 100 nM
Cc1ccc(-c2cc(C(=O)NCc3ccc(C)nc3)cc(C(=O)N3CC[C@@H](O)C3)c2)cc1 [Compound 94, (R)-5-(3-Hydroxypyrrolidine-1-carbonyl)-4′-methyl-N-((6-methylpyridin-3-yl)methyl)biphenyl-3-carboxamide] | – | – | < 100 nM | < 100 nM
Cc1ccc(-c2cc(C(=O)N[C@H](C)c3cnc(C)nc3)cc(C(O)c3ccccc3)c2)c(C#N)c1 (stereo partly shown) [Compound 278] | < 100 nM | < 100 nM | – | –

Other lines, results leading:

IC50 (hP2X2/3H; [1]) | IC50 (hP2X3; [2]) | IC50 (hP2X2/3H; [3]) | IC50 (hP2X3; [4]) | SMILES
– | – | 100 to 500 nM | 100 to 500 nM | Cc1ccc(-c2cc(C(=O)NCc3cnc(C)nc3)cc(C(=O)NCc3cnc(C)nc3)c2)cc1 [Compound 16, 4′-Methyl-N3,N5-bis((2-methylpyrimidin-5-yl)methyl)biphenyl-3,5-dicarboxamide]
< 100 nM | < 100 nM | – | – | Cc1ccc(-c2cc(OCC3CCOC3)cc(C(=O)N[C@H](C)c3ccc(C)nc3)c2)c(C#N)c1 (stereo partly shown) [Compound 313]
< 100 nM | < 100 nM | – | – | Cc1ccc(-c2cc(C(=O)N[C@H](C)c3cnc(C)nc3)cc(C(O)c3ccccn3)c2)nc1 (stereo partly shown) [Compound 286]
< 100 nM | < 100 nM | – | – | Cc1ccc(CNC(=O)c2cc(C(=O)N3CCCC3)cc(-c3ccc(Br)cc3)c2)cn1 [Compound 200, 4′-Bromo-N-((6-methylpyridin-3-yl)methyl)-5-(pyrrolidine-1-carbonyl)biphenyl-3-carboxamide]
100 to 500 nM | 100 to 500 nM | – | – | Cc1ccc(-c2cc(Oc3nc4ccccc4s3)cc(C(=O)N[C@H](C)c3ccc(C)nc3)c2)c(C#N)c1 [Compound 392]
– | – | < 100 nM | 100 to 500 nM | Cc1ccc(-c2cc(C(=O)N[C@H](C)c3ccc(C(F)(F)F)nc3)cc(C(=O)N3CCCC3)c2)cc1 [Compound 46]
< 100 nM | < 100 nM | – | – | CCS(=O)(=O)c1cc(C(=O)N[C@H](C)c2cnc(C)nc2)cc(-c2ccc(C)cc2)c1 [Compound 210]
– | – | 100 to 500 nM | 100 to 500 nM | Cc1ccc(-c2cc(C(=O)NCc3ccc(C)nc3)cc(C(=O)N(C)CC3CCNCC3)c2)cc1 [Compound 169]
< 100 nM | < 100 nM | – | – | Cc1ccc(-c2cc(C(=O)NCc3ccc(C)nc3)cc(C(O)CN3CC(C)OC(C)C3)c2)cc1 (stereo not shown) [Compound 391]
< 100 nM | < 100 nM | – | – | Cc1ccc(-c2cc(Oc3ncccn3)cc(C(=O)N[C@H](C)c3ccc(C)nc3)c2)cc1 [Compound 232, (R)-4′-Methyl-N-(1-(6-methylpyridin-3-yl)ethyl)-5-(pyrimidin-2-yloxy)biphenyl-3-carboxamide]
< 100 nM | < 100 nM | – | – | Cc1ccc(-c2cc(OC3COCC3O)cc(C(=O)N[C@H](C)c3cnc(C)nc3)c2)cc1 (stereo partly shown) [Compound 362]
– | – | < 100 nM | < 100 nM | Cc1ccc(-c2cc(C(=O)NCc3ncc(Cl)cc3Cl)cc(C(=O)N3CCCC3)c2)cc1 [Compound 81]
– | – | < 100 nM | < 100 nM | CCCS(=O)(=O)c1cc(C(=O)NCc2ccn3ccnc3c2)cc(-c2ccc(C)cc2)c1 [Compound 57]
100 to 500 nM | < 100 nM | – | – | COCCOc1cc(C(=O)N[C@H](C)c2cnc(C)nc2)cc(-c2ccc(C)cn2)c1 [Compound 266]
– | – | 100 to 500 nM | 100 to 500 nM | Cc1ccc(-c2cc(C(=O)O)cc(C(=O)NCc3ccc(C)nc3)c2)cc1 [Compound 87, 4′-Methyl-5-((6-methylpyridin-3-yl)methylcarbamoyl)biphenyl-3-carboxylic acid]
100 to 500 nM | < 100 nM | – | – | Cc1ccc(-c2cc(CO)cc(C(=O)NCc3cnc(C)nc3)c2)c(C#N)c1 [Compound 304]
